Data reported in patent publication US20260217735A1, “HETEROCYCLES AND USES THEREOF” (Kumquat Biosciences Inc., priority 2023, published 2026).

How the values were obtained:
KRAS G12D = target: T1, KRAS G12D (Homo sapiens, UniProt P01116, G12D); test: HTRF assay, KRAS G12D interaction with SOS1; assay type: biochemical; settings: bins <500 nM / 500 nM to 1000 nM, read-out: Inhibition of KRAS G12D (IC50)
T1 construct: made in house; host or cells: E. coli, e.g. BL21 (DE3)

KRAS WT = target: T2, KRAS WT (Homo sapiens, UniProt P01116); test: HTRF assay, wildtype KRAS interaction with SOS1; assay type: biochemical; settings: bins <500 nM / 500 nM to 1000 nM, read-out: Inhibition of KRAS WT (IC50)
T2 construct: made in house; host or cells: E. coli, e.g. BL21 (DE3)

KRAS G12V = target: T3, KRAS G12V (Homo sapiens, UniProt P01116, G12V); test: HTRF assay, KRAS G12V interaction with SOS1; assay type: biochemical; settings: bins <500 nM / 500 nM to 1000 nM, read-out: Inhibition of KRAS G12V (IC50)
T3 construct: made in house; host or cells: E. coli, e.g. BL21 (DE3)

KRAS G12S = target: T4, KRAS G12S (Homo sapiens, UniProt P01116, G12S); test: HTRF assay, KRAS G12S interaction with SOS1; assay type: biochemical; settings: bins <500 nM / 500 nM to 1000 nM, read-out: Inhibition of KRAS G12S (IC50)
T4 construct: made in house; host or cells: E. coli, e.g. BL21 (DE3)

MiaPaca2 cells = test: Ras cellular assay, growth of cells with K-Ras G12C mutation; assay type: cell-based; settings: Homo sapiens, MIA PaCa-2; cell proliferation assay; bins ≤500 nM / >500 nM; read-out: Inhibition of MiaPaca2 Cells (IC50)
Procedure, shortened: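 MIA PaCa-2 cells (K-Ras G12C, about 125-150 cells/well) grown in 0.25% soft agar over a 0.6% agar base, compound added on day 2 at 0.3% final DMSO. Growth read on day 10 by Cell Titer 96 AQueous absorbance (490 nm, reference 660 nm) against time-zero wells; IC50 from four-parameter fit.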

T3 sequence (P01116 1-188 isoform P01116-2 G12V): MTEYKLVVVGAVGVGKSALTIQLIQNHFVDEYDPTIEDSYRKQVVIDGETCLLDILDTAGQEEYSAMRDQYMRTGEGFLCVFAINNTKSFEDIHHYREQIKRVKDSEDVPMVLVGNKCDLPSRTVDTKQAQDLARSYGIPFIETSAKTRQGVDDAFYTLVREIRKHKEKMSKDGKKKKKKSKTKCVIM
T1 sequence (P01116 1-188 isoform P01116-2 G12D): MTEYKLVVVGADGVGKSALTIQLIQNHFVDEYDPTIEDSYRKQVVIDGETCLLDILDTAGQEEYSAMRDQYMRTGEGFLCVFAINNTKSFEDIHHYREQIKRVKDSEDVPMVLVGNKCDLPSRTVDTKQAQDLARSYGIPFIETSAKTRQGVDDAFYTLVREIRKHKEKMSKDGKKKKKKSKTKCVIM
T2 sequence (P01116 1-188 isoform P01116-2): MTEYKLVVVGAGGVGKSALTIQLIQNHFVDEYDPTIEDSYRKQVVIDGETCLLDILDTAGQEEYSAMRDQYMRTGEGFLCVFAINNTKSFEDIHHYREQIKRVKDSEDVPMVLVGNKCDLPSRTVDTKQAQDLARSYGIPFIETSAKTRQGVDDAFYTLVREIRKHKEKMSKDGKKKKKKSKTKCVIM
T4 sequence (P01116 1-188 isoform P01116-2 G12S): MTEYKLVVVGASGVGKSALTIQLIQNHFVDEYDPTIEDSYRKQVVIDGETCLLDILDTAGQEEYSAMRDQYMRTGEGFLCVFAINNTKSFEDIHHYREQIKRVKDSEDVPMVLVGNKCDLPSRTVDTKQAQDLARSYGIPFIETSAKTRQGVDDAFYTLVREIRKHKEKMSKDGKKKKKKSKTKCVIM

Compound	IC50 (KRAS G12D)	IC50 (KRAS WT)	IC50 (KRAS G12V)	IC50 (KRAS G12S)	IC50 (MiaPaca2 cells)
Cc1nccn1C(=O)N1CC2(CCN(c3nc(OC[C@@]45CCCN4C[C@H](F)C5)nc4c(F)c(-c5ccc(F)c6sc(N)c(C#N)c56)c(Cl)cc34)C2)C1 [Compound 123, 2-amino-4-(6-chloro-8-fluoro-2-(((2R,7aS)-2-fluorotetrahydro-1H-pyrrolizin-7a(5H)-yl)methoxy)-4-(2-(2-methyl-1H-imidazole-1-carbonyl)-2,6-diazaspiro[3.4]octan-6-yl)quinazolin-7-yl)-7-fluorobenzo[b]thiophene-3-carbonitrile]	< 0.5 µM	< 0.5 µM	< 0.5 µM	< 0.5 µM	≤ 0.5 µM
Cc1ncn(C(=O)N2C[C@]3(CCCCN(c4nc(OC[C@@]56CCCN5C[C@H](F)C6)nc5c(F)c(-c6ccc(F)c7sc(N)c(C#N)c67)c(Cl)cc45)C3)[C@H]2C2(C)CC2)c1C [Compound 174, 2-amino-4-(6-chloro-4-((1R,4R)-2-(4,5-dimethyl-1H-imidazole-1-carbonyl)-1-(1-methylcyclopropyl)-2,6-diazaspiro[3.6]decan-6-yl)-8-fluoro-2-(((2R,7aS)-2-fluorotetrahydro-1H-pyrrolizin-7a(5H)-yl)methoxy)quinazolin-7-yl)-7-fluorobenzo[b]thiophene-3-carbonitrile]	< 0.5 µM	< 0.5 µM	< 0.5 µM	< 0.5 µM	≤ 0.5 µM
Cc1nc(C)n(C(=O)N2CC[C@@H](N(C)c3nc(OC[C@@]45CCCN4C[C@H](F)C5)nc4c(F)c(-c5ccc(F)c6sc(N)c(C#N)c56)c(Cl)cc34)[C@H]2C)c1C [Compound 127, 2-amino-4-(6-chloro-8-fluoro-2-(((2R,7aS)-2-fluorotetrahydro-1H-pyrrolizin-7a(5H)-yl)methoxy)-4-(methyl((2R,3R)-2-methyl-1-(2,4,5-trimethyl-1H-imidazole-1-carbonyl)pyrrolidin-3-yl)amino)quinazolin-7-yl)-7-fluorobenzo[b]thiophene-3-carbonitrile]	< 0.5 µM	< 0.5 µM	< 0.5 µM	< 0.5 µM	≤ 0.5 µM
CC[C@@H]1[C@H](N(C)c2nc(OC[C@@]34CCCN3C[C@H](F)C4)nc3c(F)c(-c4ccc(F)c5sc(N)c(C#N)c45)c(Cl)cc23)CCN1C(=O)n1cnc(F)n1 [Compound 134, 2-amino-4-(6-chloro-4-(((2R,3R)-2-ethyl-1-(3-fluoro-1H-1,2,4-triazole-1-carbonyl)pyrrolidin-3-yl)(methyl)amino)-8-fluoro-2-(((2R,7aS)-2-fluorotetrahydro-1H-pyrrolizin-7a(5H)-yl)methoxy)quinazolin-7-yl)-7-fluorobenzo[b]thiophene-3-carbonitrile]	< 0.5 µM	< 0.5 µM	< 0.5 µM	< 0.5 µM	≤ 0.5 µM
CC[C@@H]1[C@H](N(CC)c2nc(OC[C@@]34CCCN3C[C@H](F)C4)nc3c(F)c(-c4ccc(F)c5sc(N)c(C#N)c45)c(Cl)cc23)CCN1C(=O)n1cnc(F)n1 [Compound 168, 2-amino-4-(6-chloro-4-(ethyl((2R,3R)-2-ethyl-1-(3-fluoro-1H-1,2,4-triazole-1-carbonyl)pyrrolidin-3-yl)amino)-8-fluoro-2-(((2R,7aS)-2-fluorotetrahydro-1H-pyrrolizin-7a(5H)-yl)methoxy)quinazolin-7-yl)-7-fluorobenzo[b]thiophene-3-carbonitrile]	< 0.5 µM	< 0.5 µM	< 0.5 µM	< 0.5 µM	≤ 0.5 µM
CCN(c1nc(OC[C@@]23CCCN2C[C@H](F)C3)nc2c(F)c(-c3ccc(F)c4sc(N)c(C#N)c34)c(C(F)(F)F)cc12)[C@@H]1CCN(C(=O)n2ccnc2C)[C@@H]1C [Compound 148, 2-amino-4-(4-(ethyl((2R,3R)-2-methyl-1-(2-methyl-1H-imidazole-1-carbonyl)pyrrolidin-3-yl)amino)-8-fluoro-2-(((2R,7aS)-2-fluorotetrahydro-1H-pyrrolizin-7a(5H)-yl)methoxy)-6-(trifluoromethyl)quinazolin-7-yl)-7-fluorobenzo[b]thiophene-3-carbonitrile]	< 0.5 µM	< 0.5 µM	< 0.5 µM	< 0.5 µM	≤ 0.5 µM
CC[C@@H]1[C@H](N(CC)c2nc(OC[C@@]34CCCN3C[C@H](F)C4)nc3c(F)c(-c4ccc(F)c5sc(N)c(C#N)c45)c(Cl)cc23)CCN1C(=O)n1ccnc1 [Compound 173, 2-amino-4-(6-chloro-4-(ethyl((2R,3R)-2-ethyl-1-(1H-imidazole-1-carbonyl)pyrrolidin-3-yl)amino)-8-fluoro-2-(((2R,7aS)-2-fluorotetrahydro-1H-pyrrolizin-7a(5H)-yl)methoxy)quinazolin-7-yl)-7-fluorobenzo[b]thiophene-3-carbonitrile]	< 0.5 µM	< 0.5 µM	< 0.5 µM	< 0.5 µM	≤ 0.5 µM

Results, then the compound that gave them:

IC50 (KRAS G12D)	IC50 (KRAS WT)	IC50 (KRAS G12V)	IC50 (KRAS G12S)	IC50 (MiaPaca2 cells)	Compound
< 0.5 µM	< 0.5 µM	< 0.5 µM	< 0.5 µM	≤ 0.5 µM	C[C@@H]1[C@H](N(C)c2nc(OC[C@@]34CCCN3C[C@H](F)C4)nc3c(F)c(-c4ccc(F)c5sc(N)c(C#N)c45)c(C(F)(F)F)cc23)CCN1C(=O)n1ccnc1 [Compound 200, 4-(4-(((2R,3R)-1-(1H-imidazole-1-carbonyl)-2-methylpyrrolidin-3-yl)(methyl)amino)-8-fluoro-2-(((2R,7aS)-2-fluorotetrahydro-1H-pyrrolizin-7a(5H)-yl)methoxy)-6-(trifluoromethyl)quinazolin-7-yl)-2-amino-7-fluorobenzo[b]thiophene-3-carbonitrile]
< 0.5 µM	< 0.5 µM	< 0.5 µM	< 0.5 µM	≤ 0.5 µM	CCN(c1nc(OC[C@@]23CCCN2C[C@H](F)C3)nc2c(F)c(-c3ccc(F)c4sc(N)c(C#N)c34)c(Cl)cc12)[C@@H]1CCN(C(=O)n2cc(C)nc2Cl)[C@@H]1C [Compound 137, 2-amino-4-(6-chloro-4-(((2R,3R)-1-(2-chloro-4-methyl-1H-imidazole-1-carbonyl)-2-methylpyrrolidin-3-yl)(ethyl)amino)-8-fluoro-2-(((2R,7aS)-2-fluorotetrahydro-1H-pyrrolizin-7a(5H)-yl)methoxy)quinazolin-7-yl)-7-fluorobenzo[b]thiophene-3-carbonitrile]
< 0.5 µM	< 0.5 µM	< 0.5 µM	< 0.5 µM	≤ 0.5 µM	CCN(c1nc(OC[C@@]23CCCN2C[C@H](F)C3)nc2c(F)c(-c3ccc(F)c4sc(N)c(C#N)c34)c(C(F)(F)F)cc12)[C@@H]1CCN(C(=O)n2cc(C#N)nc2C)[C@@H]1C [Compound 159, 1-((2R,3R)-3-((7-(2-amino-3-cyano-7-fluorobenzo[b]thiophen-4-yl)-8-fluoro-2-(((2R,7aS)-2-fluorotetrahydro-1H-pyrrolizin-7a(5H)-yl)methoxy)-6-(trifluoromethyl)quinazolin-4-yl)(ethyl)amino)-2-methylpyrrolidine-1-carbonyl)-2-methyl-1H-imidazole-4-carbonitrile]
< 0.5 µM	< 0.5 µM	< 0.5 µM	< 0.5 µM	≤ 0.5 µM	Cc1c(F)c(N)cc(-c2ncc3c(N(C)[C@@H]4CCN(C(=O)n5cnc(F)n5)[C@@H]4C)nc(OC[C@@]45CCCN4C[C@H](F)C5)nc3c2F)c1C(F)(F)F [Compound 185, ((2R,3R)-3-((7-(5-amino-4-fluoro-3-methyl-2-(trifluoromethyl)phenyl)-8-fluoro-2-(((2R,7aS)-2-fluorotetrahydro-1H-pyrrolizin-7a(5H)-yl)methoxy)pyrido[4,3-d]pyrimidin-4-yl)(methyl)amino)-2-methylpyrrolidin-1-yl)(3-fluoro-1H-1,2,4-triazol-1-yl)methanone]
< 0.5 µM	< 0.5 µM	< 0.5 µM	< 0.5 µM	≤ 0.5 µM	CC[C@H]1N(C(=O)n2cc(C#N)nc2C)C[C@]12CCCCN(c1nc(OC[C@@]34CCCN3C[C@H](F)C4)nc3c(F)c(-c4ccc(F)c5sc(N)c(C#N)c45)c(Cl)cc13)C2 (atropisomer, axis not shown; (aS)) [Compound 117, 1-((1R,4R)-6-(7-((R)-2-amino-3-cyano-7-fluorobenzo[b]thiophen-4-yl)-6-chloro-8-fluoro-2-(((2R,7aS)-2-fluorotetrahydro-1H-pyrrolizin-7a(5H)-yl)methoxy)quinazolin-4-yl)-1-ethyl-2,6-diazaspiro[3.6]decane-2-carbonyl)-2-methyl-1H-imidazole-4-carbonitrile]
< 0.5 µM	< 0.5 µM	< 0.5 µM	< 0.5 µM	≤ 0.5 µM	CC(C)c1cn(C(=O)N2CC[C@@H](N(C)c3nc(OC[C@@]45CCCN4C[C@H](F)C5)nc4c(F)c(-c5ccc(F)c6sc(N)c(C#N)c56)c(Cl)cc34)[C@H]2C)cn1 [Compound 213, 2-amino-4-(6-chloro-8-fluoro-2-(((2R,7aS)-2-fluorotetrahydro-1H-pyrrolizin-7a(5H)-yl)methoxy)-4-(((2R,3R)-1-(4-isopropyl-1H-imidazole-1-carbonyl)-2-methylpyrrolidin-3-yl)(methyl)amino)quinazolin-7-yl)-7-fluorobenzo[b]thiophene-3-carbonitrile]
